Laboratory results published in patent US5665760A, “Lyophilized thioxanthenone antitumor agents” (priority 1995, dated 1997).
Where a name gives a salt, the structure may show the parent alone.

What was measured:
[1] = system: pancreatic ductal adenocarcinoma #03; assay: antitumor activity in mice against pancreatic ductal adenocarcinoma #03 (Panc 03); type: in vivo; details: for Weight Loss / Drug Deaths: Table 1, total doses as in E1; for Weight Loss: average body weight 25 g
Procedure: (§1) Representative examples of the invention were tested for antitumor activity in mice according to the following procedure:
(§2) The animals were pooled, implanted subcutaneously with 30 to 60 mg tumor fragments by 12-gauge trocar, and again pooled before unselective distribution to the various treatment and control groups. For early-stage treatment, chemotherapy was started within 1 to 5 days after tumor implantation while the number of cells was relatively small (10^7 to 10^8 cells). For advanced-stage treatment, chemotherapy was delayed until the tumor became relatively large (200 to 300 mg in size). A 300-mg tumor contains approximately 3×10^8 total cells. […] Tumors were measured with a caliper weekly (or twice weekly for the more rapidly growing tumors). Mice were sacrificed when their tumors reached 1500 mg (i.e., before they can cause the animal discomfort). Tumor weights were estimated from two-dimensional measurements.
(§3) The treatment and control groups were measured when the control group tumors reached approximately 700 to 1200 mg in size (Median of Group). The median tumor weight of each group was determined (including zeros). […] A T/C value <10% is considered to indicate highly significant antitumor activity.
(§4) The results are shown in Table I for pancreatic ductal adenocarcinoma #03 and in Table 2 for colon adenocarcinoma #38.

colon adenocarcinoma #38 = assay: antitumor activity in mice against colon adenocarcinoma #38; type: in vivo
Procedure: as §1, §2, §3, §4

[2] = Table 2, i.v., total dose mg/kg by Example: 2:600, 5:960, 6:132, 7:840, 16(a):1000, 18(e):180
[3] = Table 2, i.v., total dose mg/kg by Example: 6:82, 16(a):690, 18(e):120
[4] = Table 2, total dose 327 mg/kg, i.v. days 3-6 and p.o. days 7-10
[5] = Table 2, total dose 529 mg/kg, i.v. days 3-6 and p.o. days 7-10
[6] = Table 2, total dose 852 mg/kg, i.v. days 3-6 and p.o. days 7-10
[7] = Table 2, i.p., total dose mg/kg by Example: 10:340, 11:518
[8] = Table 2, p.o., total dose mg/kg by Example: 10:460, 11:885
[9] = Table 2, p.o., total dose mg/kg by Example: 10:740, 11:1709

SMILES	Weight Loss [1]	Drug Deaths [1]	Drug Deaths (colon adenocarcinoma #38; [2])	Drug Deaths (colon adenocarcinoma #38; [3])	Weight Loss (colon adenocarcinoma #38; [3]) [g]	Weight Loss (colon adenocarcinoma #38; mouse, in vivo, iv) [g]	T/C [1] [%]	further results
CN(C)CCNc1ccc(CN)c2sc3ccccc3c(=O)c12 [18(e), 4-(Aminomethyl)-l-[[2-dimethylamino)ethyl]amino]-9-oxothioxanthen-9-one dihydrochloride·1/2 hydrate]	1.0 g	0	4/5	0	1.0	2.2	–	–
CCN(CC)CCNc1ccc(CNC(=O)C(F)(F)F)c2sc3ccccc3c(=O)c12 [16(a), N-[[1-[[2-(Diethylamino)ethyl]amino]-9-oxothioxanthen-4-yl]methyl]-trifluoroacetamide]	+0.8 g	0	0	0	1.5	1.2	21	–
CCN(CC)CCNc1ccc(C(N)=O)c2sc3ccccc3c(=O)c12 [Example 7, 1-[[2'-(Diethylamino)ethyl]amino]-9-oxothioxanthene-4-carboxamide]	3.2 g	1/5	0	–	–	0.6	–	–
CCN(CC)CCNc1ccc(CN(CC)S(C)(=O)=O)c2sc3ccccc3c(=O)c12 [Example 25, N-[[1-[[2-(Diethylamino)ethyl]amino]-9-oxothioxanthen-4-yl]methyl]-N-ethyl-methanesulfonamide]	4.6 g	0	–	–	–	–	0	response vs control in vivo at 327 mg/kg (colon adenocarcinoma #38; Mus musculus, read-out: T/C): 0%; response vs control in vivo at 529 mg/kg (colon adenocarcinoma #38; Mus musculus, read-out: T/C): 0%; response vs control in vivo at 852 mg/kg (colon adenocarcinoma #38; Mus musculus, read-out: T/C): 0%; Drug Deaths (colon adenocarcinoma #38; [4]): 0; Weight Loss (colon adenocarcinoma #38; [4]): 0.8 g; Drug Deaths (colon adenocarcinoma #38; [5]): 0; Weight Loss (colon adenocarcinoma #38; [5]): 0.6 g; Drug Deaths (colon adenocarcinoma #38; [6]): 4/5; Weight Loss (colon adenocarcinoma #38; [6]): 4.8 g
CCN(CC)CCNc1ccc(CNC(=O)c2ccccc2)c2sc3ccccc3c(=O)c12 [Example 11, N-[[1-[[2-(Diethylamino)ethyl]amino]-9-oxothioxanthen-4-yl]methyl]benzamide]	0.8 g	0	–	–	–	–	0	Drug Deaths (colon adenocarcinoma #38; [7]): 0; Weight Loss (colon adenocarcinoma #38; [7]): 0.8 g; Drug Deaths (colon adenocarcinoma #38; [8]): 0; Weight Loss (colon adenocarcinoma #38; [8]): 0.8 g; Drug Deaths (colon adenocarcinoma #38; [9]): 0; Weight Loss (colon adenocarcinoma #38; [9]): 2.0 g; T/C (colon adenocarcinoma #38; ip): 39%; T/C (colon adenocarcinoma #38; po): 0%
